How the values were obtained:
mammalian cells = experiment: Resistance of cells to hypoxia; type: cell-based
[1] = tested on: kidney derived cancer cell line; experiment: Western blot of kidney derived cancer cell line cultured in hypoxia (NRF2, PDH phosphorylation); type: cell-based; conditions: hypoxia for 5 days
Protocol: This includes NRF2 accumulation, which is a sensor of oxidative stress, and phosphorylation on PDH, which is a marker of AMPK activation. AMPK senses AMP, and is hyperactive when cells have “low energy”
Western Blots: Adherent cells were lysed in RIPA buffer (150 mM NaCl, 50 mM Tris-HCl, pH 7.5, 0.1% SDS, 1% Triton-X 100 (Sigma), 0.5% deoxycholate (Sigma), complete EDTA-free protease inhibitor (Sigma)) and clarified by centrifugation. Protein content was quantified using a Pierce BCA Protein Assay Kit (Life Technologies) and 30-50 μg protein were loaded on 12% Tris-Glycine Novex Gels (Invitrogen). Proteins were subsequently transferred to a 0.45 μm PVDF membrane (Sigma). Primary antibodies were used at the following dilutions in 5% BSA:SDHA (Proteintech; 1:1000), NDUFV1 (Abcam; 1:1000), Total OXPHOS Rodent WB Antibody Cocktail-containing UQCRC2, SDHB, and ATP5A (Abcam; 1:1000), COX IV (Cell Signaling Technology; 1:1000), MT-ND5 (Abcam; 1:1000), FLAG (Sigma; 1:1000), HIF1a (Cell Signaling Technology; 1:1000), ATP citrate lyase (Abcam; 1:1000), Citrate Synthase (Cell Signaling; 1:1000). Secondary antibodies were used at the following dilutions in 5% Milk:Anti-rabbit IgG HRP-linked Antibody (1:5000, Cell Signaling Technology), Anti-mouse IgG HRP-linked Antibody (1:5000, Cell Signaling Technology). […]

[2] = tested on: mitochondrial membrane potential; experiment: Mitochondrial membrane potential (TMRE dye); type: cell-based, human
Protocol: Live Cell Imaging: 143B cells were seeded at 50% density in 6-well dishes 24 hours prior to the experiment. Cells were pre-incubated with 500 nM TMRE dye for 30 minutes and then imaging on a Nikon TE2000 inverted microscope was started. Images were taken at 1 minute intervals over the course of an hour in the mCherry channel while the plate was incubated in a chamber maintaining a temperature of 37° C. and 5% CO2.
Flow Cytometry: Cells were seeded 24 hours prior to the experiment at 50% density. On the day of the experiment, the cells were treated for the designated time with inhibitors. 30 minutes prior to the end of the incubation, 500 nM TMRE dye was added to the wells. Following incubation cells were washed, trypsinized, and filtered through a cell strainer prior to sorting. Fluorescence-activated cell sorting was performed on a LSR-II sorter, in which the fluorescence intensity of individual cells was quantified in the PE channel. Data were analyzed using FlowJo software (TreeStar).

[3] = tested on: liver, kidney, heart, and skeletal muscle; experiment: Ex vivo O2 consumption of mouse tissues
Protocol: Oxygen Consumption Rate (Seahorse): Respiration was measured on intact 143B cells and on mitochondria purified from tissue on the Seahorse XFe-96 Analyzer (Seahorse Bioscience). Cells were incubated in a non-CO2 37° C. incubator in serum-free Seahorse XF RPMI Media (Seahorse Bioscience, Catalog #103336) supplemented with 5 mM glucose, 2 mM glutamine, and 1 mM pyruvate. Oxygen consumption rate (OCR) was measured over a period of 30 minutes. Oxygen consumption rate was also measured on mitochondria purified from mouse tissues. Mitochondria were incubated in MAS buffer (70 mM sucrose, 220 mM mannitol, 10 mM KH2PO4, 5 mM MgCl2, 2 mM HEPES pH 7.2, 1 mM EGTA, 2% BSA) supplemented with 2 mM ADP, 5 mM glutamate, 5 mM malate, 5 mM pyruvate, and 2.5 mM succinate. Oxygen consumption rate (OCR) was measured over a period of 30 minutes.

MT-DNA copy number = experiment: MT-DNA quantification; type: cell-based, human; conditions: SDHA and SDHB knockout cells
Protocol: MT-DNA Quantification: Cells were pelleted, washed 1× in PBS, and then lysed in buffer (25 mM NaOH, 0.2 mM EDTA) for 15 minutes at 95° C. Lysis was neutralized with buffer (40 mM Tris-HCl) and centrifuged at 16,000×g for 10 minutes at 4° C. Supernatant containing MT-DNA was quantified on a CFX96 Real-Time System Thermal Cycler (Bio Rad). Primers amplifying the MT-DNA marker D-Loop (Forward Primer-[…] (SEQ ID NO: 5) Reverse Primer—[…]) (SEQ ID NO: 6) and the nuclear DNA marker B-Globin (Forward Primer-[…] (SEQ ID NO: 7) Reverse Primer—[…]) (SEQ ID NO: 8) were used and the relative MT-DNA to nuclear DNA was quantified in each sample [4].

143B cells = experiment: Ubiquinone and ubiquinol measurement by LC-MS in mitochondria; type: cell-based, human; conditions: antimycin-treated SDHB knockout cells versus antimycin-treated wild-type cells
Protocol: Ubiquinone and Ubiquinol measurements: Ubiquinone and Ubiquinol were isolated from mitochondria purified by differential centrifugation as described above. Extraction and mass spectrometry protocols were performed with slight modifications to a previously described protocol. Briefly, mitochondria isolated from 25 million cells or approximately 100 mg mouse tissue were resuspended in 500 μL of ethanol and vortexed for 10 minutes at 4° C. Then, 1 mL of hexane was added and the samples were vortexed for an additional 10 minutes at 4° C. Samples were centrifuged at 16,000×g for 10 minutes at 4° C., creating two layers—the top hexane layer and bottom ethanol layer. The top (hexane) fraction was moved into a new tube and dried down. Immediately prior to LC-MS, samples were resuspended in 50 μL of 80:20 ethanol:hexane and loaded into a 4° C. autosampler. 5 μL of samples were injected onto a Luna 3 μm PFP(2) 100 Å, LC Column 100×2 mm. The column oven was held at 25° C. and the autosampler tray was held at 4° C. Buffer A contained water with 0.1% formic acid and Buffer B contained acetonitrile with 0.1% formic acid. […]

Substance | resistance to hypoxia (mammalian cells) | oxidative and bioenergetic stresses (NRF2 accumulation, phosphorylation on PDH) [1] | mitochondrial membrane potential (ΔΨMito) ([2]; SDHB-null cells versus wild-type cells, 30 minutes of antimycin treatment) | mitochondrial membrane potential (ΔΨMito) ([2]; wild-type cells, time course after antimycin) | O2 consumption [3] | MT-DNA copy number (MT-DNA copy number) | levels of UQH2 and ratio of UQH2:UQ (143B cells)
rhodoquinone | renders mammalian cells resistant to hypoxia | protects against oxidative and bioenergetic stresses | – | – | – | – | –
antimycin | – | – | substantially more depolarized | initial reduction in the ΔΨ^Mito, which was restored to pre-treatment levels | ablated | did not alter | greater
